Assay results as given in patent US10168342B2, “Lipid probes and uses thereof” (THE SCRIPPS RESEARCH INSTITUTE, priority 2015, dated 2019).
Where two headings read alike, the source gives them in different places.

Columns and labels:
[1] = target: T1, AEA-DA lipid probe targets in Neuro2a cells (Mus musculus, UniProt Q6QD59)
T1 sequence (Q6QD59 1-228): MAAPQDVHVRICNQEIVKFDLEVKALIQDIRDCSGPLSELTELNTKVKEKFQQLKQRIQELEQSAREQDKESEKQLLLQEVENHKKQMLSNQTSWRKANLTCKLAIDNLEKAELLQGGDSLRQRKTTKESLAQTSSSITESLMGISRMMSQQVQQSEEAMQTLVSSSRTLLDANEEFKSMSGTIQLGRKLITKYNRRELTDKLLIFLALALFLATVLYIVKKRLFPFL

[2] = target: T2, AEA-DA lipid probe targets in Neuro2a cells (Mus musculus, UniProt Q9CPQ3); settings: for SILAC ratio, TOMM22 (Q9CPQ3): Neuro2a cells, AEA-DA probe
T2 sequence (Q9CPQ3 1-142): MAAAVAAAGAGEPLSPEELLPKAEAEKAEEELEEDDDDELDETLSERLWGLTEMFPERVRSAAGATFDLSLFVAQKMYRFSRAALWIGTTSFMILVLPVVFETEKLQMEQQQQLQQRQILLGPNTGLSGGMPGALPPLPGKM

[3] = target: T3, AEA-DA lipid probe targets in Neuro2a cells (Mus musculus, UniProt Q9CPQ8)
T3 sequence (Q9CPQ8 1-103): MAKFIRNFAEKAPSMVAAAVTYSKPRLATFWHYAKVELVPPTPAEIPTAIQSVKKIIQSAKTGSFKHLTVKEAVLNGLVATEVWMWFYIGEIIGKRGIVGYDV

[4] = target: T4, AEA-DA lipid probe targets in Neuro2a cells (Mus musculus, UniProt P48678)
T4 sequence (P48678 1-665): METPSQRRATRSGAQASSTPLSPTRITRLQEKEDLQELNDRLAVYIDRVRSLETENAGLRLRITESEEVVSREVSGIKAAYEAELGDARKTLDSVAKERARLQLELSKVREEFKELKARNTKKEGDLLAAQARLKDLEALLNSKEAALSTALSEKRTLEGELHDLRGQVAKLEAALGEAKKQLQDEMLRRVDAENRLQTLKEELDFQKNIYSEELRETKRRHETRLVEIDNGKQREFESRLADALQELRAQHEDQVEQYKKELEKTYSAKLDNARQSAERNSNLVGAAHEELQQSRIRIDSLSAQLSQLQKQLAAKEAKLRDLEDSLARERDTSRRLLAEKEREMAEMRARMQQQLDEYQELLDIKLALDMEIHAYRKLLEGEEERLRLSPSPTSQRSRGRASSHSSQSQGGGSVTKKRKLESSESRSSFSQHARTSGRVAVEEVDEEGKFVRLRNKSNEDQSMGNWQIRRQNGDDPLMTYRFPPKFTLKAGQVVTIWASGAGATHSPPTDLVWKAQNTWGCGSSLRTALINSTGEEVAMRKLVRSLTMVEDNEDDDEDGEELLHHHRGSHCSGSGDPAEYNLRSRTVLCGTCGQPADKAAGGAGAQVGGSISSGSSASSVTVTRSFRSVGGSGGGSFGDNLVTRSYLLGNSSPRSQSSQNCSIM

[5] = target: T5, AEA-DA lipid probe targets in Neuro2a cells (Mus musculus, UniProt Q9Z0R9); settings: for SILAC ratio, FADS2 (Q9Z0R9): Neuro2a cells, AEA-DA probe
T5 sequence (Q9Z0R9 1-444): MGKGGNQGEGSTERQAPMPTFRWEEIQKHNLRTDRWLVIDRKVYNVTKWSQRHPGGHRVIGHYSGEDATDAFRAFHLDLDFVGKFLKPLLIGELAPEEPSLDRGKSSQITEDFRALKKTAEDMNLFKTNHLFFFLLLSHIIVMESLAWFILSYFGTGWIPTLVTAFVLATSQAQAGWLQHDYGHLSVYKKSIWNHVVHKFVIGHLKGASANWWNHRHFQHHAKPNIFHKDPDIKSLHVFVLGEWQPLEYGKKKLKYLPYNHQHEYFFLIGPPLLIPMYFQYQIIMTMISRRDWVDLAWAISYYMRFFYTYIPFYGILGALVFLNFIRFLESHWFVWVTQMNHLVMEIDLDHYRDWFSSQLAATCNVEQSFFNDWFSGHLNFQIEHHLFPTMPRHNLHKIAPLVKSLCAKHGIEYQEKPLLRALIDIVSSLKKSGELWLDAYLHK

[6] = target: T6, AEA-DA lipid probe targets in Neuro2a cells (Mus musculus, UniProt Q8K411)
T6 sequence (Q8K411 16-1036): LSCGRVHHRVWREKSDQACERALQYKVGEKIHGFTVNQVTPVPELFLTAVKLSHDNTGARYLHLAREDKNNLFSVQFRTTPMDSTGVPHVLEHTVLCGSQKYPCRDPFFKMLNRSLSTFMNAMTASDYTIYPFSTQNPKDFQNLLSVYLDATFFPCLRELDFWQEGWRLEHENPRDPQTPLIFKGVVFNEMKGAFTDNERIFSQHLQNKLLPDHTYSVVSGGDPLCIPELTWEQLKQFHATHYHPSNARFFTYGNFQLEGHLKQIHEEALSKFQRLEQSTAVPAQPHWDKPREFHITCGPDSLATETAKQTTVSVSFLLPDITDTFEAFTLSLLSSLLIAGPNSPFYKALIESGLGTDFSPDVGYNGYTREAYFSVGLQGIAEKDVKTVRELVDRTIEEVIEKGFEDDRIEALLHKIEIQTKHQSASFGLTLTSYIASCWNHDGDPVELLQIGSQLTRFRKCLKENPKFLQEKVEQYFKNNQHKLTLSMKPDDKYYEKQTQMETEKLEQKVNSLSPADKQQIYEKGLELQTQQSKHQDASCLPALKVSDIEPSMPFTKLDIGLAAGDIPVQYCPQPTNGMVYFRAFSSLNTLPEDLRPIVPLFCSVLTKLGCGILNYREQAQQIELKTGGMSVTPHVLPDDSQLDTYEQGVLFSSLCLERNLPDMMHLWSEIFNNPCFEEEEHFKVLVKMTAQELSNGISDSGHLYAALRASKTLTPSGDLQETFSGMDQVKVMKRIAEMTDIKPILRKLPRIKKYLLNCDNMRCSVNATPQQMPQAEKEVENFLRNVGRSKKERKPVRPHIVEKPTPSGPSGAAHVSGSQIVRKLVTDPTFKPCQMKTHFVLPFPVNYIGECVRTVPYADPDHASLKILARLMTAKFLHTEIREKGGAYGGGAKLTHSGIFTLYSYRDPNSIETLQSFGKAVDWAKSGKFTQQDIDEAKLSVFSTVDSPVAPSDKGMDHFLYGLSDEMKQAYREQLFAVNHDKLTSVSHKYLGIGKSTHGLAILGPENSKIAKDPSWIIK

Compound: CCCCC/C=C\C/C=C\C/C=C\C/C=C\CCCC(=O)NCCO [AEA, anandamide, reference compound]
- SILAC ratio, Bnip1 ([1]; competitor 200 μM): 2.1
- SILAC ratio, TOMM22 (Q9CPQ3) ([2]; competitor 200 μM): 1.4
- SILAC ratio, Tomm22 ([2]; competitor 200 μM): 1.4
- SILAC ratio Atp5l ([3]; competitor 200 μM): 1.3
- SILAC ratio Lmna ([4]; competitor 200 μM): 1.1
- SILAC ratio, FADS2 (Q9Z0R9) ([5]; competitor 200 μM): 2.5
- SILAC ratio, Fads2 ([5]; competitor 200 μM): 2.5
- SILAC ratio, Pitrm1 ([6]; competitor 200 μM): 2.1

Compound: O=C(/C=C/c1cccnc1)NCCCCC1CCN(C(=O)c2ccccc2)CC1 [FK-866, reference compound]
- SILAC ratio, TOMM22 (Q9CPQ3) ([2]; competitor 25 μM): 1.1
- SILAC ratio, Tomm22 ([2]; competitor 25 μM): 1.1
- SILAC ratio Atp5l ([3]; competitor 25 μM): 1.1
- SILAC ratio Lmna ([4]; competitor 25 μM): 1.2
- SILAC ratio, FADS2 (Q9Z0R9) ([5]; competitor 25 μM): 1.2
- SILAC ratio, Fads2 ([5]; competitor 25 μM): 1.2
- SILAC ratio, Pitrm1 ([6]; competitor 25 μM): 1.4

Compound: CN1CCN(C(=O)c2c(-c3ccccc3)c3cc([N+](=O)[O-])ccc3n2C)CC1 [KML110, (1-Methyl-5-nitro-3-phenyl-1H-indol-2-yl)(4-methylpiperazin-1-yl)methanone]
- SILAC ratio, Bnip1 ([1]; competitor 25 μM): 1.3
- SILAC ratio, Tomm22 ([2]; competitor 25 μM): 1.3
- SILAC ratio Atp5l ([3]; competitor 25 μM): 1.2
- SILAC ratio Lmna ([4]; competitor 25 μM): 1.3
- SILAC ratio, Fads2 ([5]; competitor 25 μM): 1.4
- SILAC ratio, Pitrm1 ([6]; competitor 25 μM): 2.0

Compound: CN1CCN(C(=O)c2[nH]c3ccc([N+](=O)[O-])cc3c2-c2ccccc2)CC1 [MJN228, (4-Methylpiperazin-1-yl)(5-nitro-3-phenyl-1H-indol-2-yl)methanone]
- SILAC ratio, Bnip1 ([1]; competitor 10 μM): 1.2
- SILAC ratio, Bnip1 ([1]; competitor 25 μM): 1.1
- SILAC ratio, TOMM22 (Q9CPQ3) ([2]; competitor 25 μM): 1.2
- SILAC ratio, Tomm22 ([2]; competitor 10 μM): 1.1
- SILAC ratio, Tomm22 ([2]; competitor 25 μM): 1.2
- SILAC ratio, Tomm22 ([2]; competitor 50 μM): 1.2
- SILAC ratio, Tomm22 ([2]; competitor 100 μM): 1.8
- SILAC ratio Atp5l ([3]; competitor 10 μM): 1.5
- SILAC ratio Atp5l ([3]; competitor 25 μM): 1.5
- SILAC ratio Atp5l ([3]; competitor 50 μM): 1.4
- SILAC ratio Atp5l ([3]; competitor 100 μM): 1.3
- SILAC ratio Lmna ([4]; competitor 10 μM): 1.3
- SILAC ratio Lmna ([4]; competitor 25 μM): 1.1
- SILAC ratio Lmna ([4]; competitor 50 μM): 1.3
- SILAC ratio Lmna ([4]; competitor 100 μM): 1.5
- SILAC ratio, FADS2 (Q9Z0R9) ([5]; competitor 25 μM): 1.8
- SILAC ratio, Fads2 ([5]; competitor 10 μM): 1.3
- SILAC ratio, Fads2 ([5]; competitor 25 μM): 1.8
- SILAC ratio, Fads2 ([5]; competitor 50 μM): 1.9
- SILAC ratio, Fads2 ([5]; competitor 100 μM): 2.8
- SILAC ratio, Pitrm1 ([6]; competitor 10 μM): 1.6
- SILAC ratio, Pitrm1 ([6]; competitor 25 μM): 1.9
- SILAC ratio, Pitrm1 ([6]; competitor 50 μM): 2.2
- SILAC ratio, Pitrm1 ([6]; competitor 100 μM): 3.4

Compound: C=CCN(C)CCCCCCOc1ccc(C(=O)c2ccc(Br)cc2)c(F)c1 [Ro 48-8071, reference compound]
- SILAC ratio, Bnip1 ([1]; competitor 25 μM): 1.0
- SILAC ratio, TOMM22 (Q9CPQ3) ([2]; competitor 25 μM): 1.0
- SILAC ratio, Tomm22 ([2]; competitor 25 μM): 1.0
- SILAC ratio Atp5l ([3]; competitor 25 μM): 1.0
- SILAC ratio Lmna ([4]; competitor 25 μM): 1.1
- SILAC ratio, FADS2 (Q9Z0R9) ([5]; competitor 25 μM): 1.2
- SILAC ratio, Fads2 ([5]; competitor 25 μM): 1.2
- SILAC ratio, Pitrm1 ([6]; competitor 25 μM): 1.0
